Laboratory results published in PubChem BioAssay AID1918937 (Molecular Pharmacology Branch, DTP, NCI, 2023).

System: 521955-158-R2-J5-PDC complex spheroid viability
Experiment: Anticancer human tumor 521955-158-R2-J5-PDC patient-derived pancreatic carcinoma cell line growth inhibition
Conditions: for IC50: curve of first compound; for viability, T/C: stronger effect = lower value
Summary of the method: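 Complex spheroids of tumor cells with HUVEC and human MSCs, exposed to iadademstat combined with other agents. Each agent tested in half-log steps from near clinical Cmax (else 10 microM top), DMSO ≤0.25%.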

[1] = second compound 0.1 µM, first compound 0.000949 µM
[2] = second compound 0.1 µM, first compound 0.003 µM
[3] = second compound 0.1 µM, first compound 0.00949 µM
[4] = second compound 0.1 µM, first compound 0.03 µM
[5] = second compound 0.1 µM, first compound 0.0949 µM
[6] = second compound 0.1 µM, first compound 0.3 µM
[7] = second compound 0.316 µM, first compound 0.000949 µM
[8] = second compound 0.316 µM, first compound 0.003 µM
[9] = second compound 0.316 µM, first compound 0.00949 µM
[10] = second compound 0.316 µM, first compound 0.03 µM
[11] = second compound 0.316 µM, first compound 0.0949 µM
[12] = second compound 0.316 µM, first compound 0.3 µM
[13] = second compound 1 µM, first compound 0.000949 µM
[14] = second compound 1 µM, first compound 0.003 µM
[15] = second compound 1 µM, first compound 0.00949 µM
[16] = second compound 1 µM, first compound 0.03 µM
[17] = second compound 1 µM, first compound 0.0949 µM
[18] = second compound 1 µM, first compound 0.3 µM
[19] = second compound 3.16 µM, first compound 0.000949 µM
[20] = second compound 3.16 µM, first compound 0.003 µM
[21] = second compound 3.16 µM, first compound 0.00949 µM
[22] = second compound 3.16 µM, first compound 0.03 µM
[23] = second compound 3.16 µM, first compound 0.0949 µM
[24] = second compound 3.16 µM, first compound 0.3 µM
[25] = second compound 10 µM, first compound 0.000949 µM
[26] = second compound 10 µM, first compound 0.003 µM
[27] = second compound 10 µM, first compound 0.00949 µM
[28] = second compound 10 µM, first compound 0.03 µM
[29] = second compound 10 µM, first compound 0.0949 µM
[30] = second compound 10 µM, first compound 0.3 µM
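Also: spheroids exposed to agents for seven days.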
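For viability, T/C in this document: percent of DMSO vehicle control luminescence viability.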

CCc1c2c(nc3ccc(O)cc13)-c1cc3c(c(=O)n1C2)COC(=O)[C@]3(O)CC + NC1CC1c1ccc(-c2cccc(O)c2)cc1
IC50 (second compound 0.1 µM): < 0.949 nM | IC50 (second compound 0.316 µM): < 0.949 nM | IC50 (second compound 1 µM): < 0.949 nM | IC50 (second compound 3.16 µM): < 0.949 nM | IC50 (second compound 10 µM): < 0.949 nM | viability, T/C [1]: 10.3% | viability, T/C [2]: 8.53% | viability, T/C [3]: 1.37% | viability, T/C [4]: 0.77% | viability, T/C [5]: 0.88% | viability, T/C [6]: 1.18% | viability, T/C [7]: 14% | viability, T/C [8]: 8.17% | viability, T/C [9]: 1.18% | viability, T/C [10]: 0.73% | viability, T/C [11]: 0.87% | viability, T/C [12]: 1.5% | viability, T/C [13]: 11.7% | viability, T/C [14]: 9.8% | viability, T/C [15]: 1.34% | viability, T/C [16]: 1.1% | viability, T/C [17]: 0.66% | viability, T/C [18]: 1.78% | viability, T/C [19]: 13.4% | viability, T/C [20]: 8.84% | viability, T/C [21]: 1.07% | viability, T/C [22]: 0.72% | viability, T/C [23]: 0.84% | viability, T/C [24]: 2.14% | viability, T/C [25]: 17.5% | viability, T/C [26]: 13% | viability, T/C [27]: 1.18% | viability, T/C [28]: 0.43% | viability, T/C [29]: 0.52% | viability, T/C [30]: 0.74%

Nc1ccccc1NC(=O)c1ccc(CNC(=O)OCc2cccnc2)cc1 + NC1CC1c1ccc(-c2cccc(O)c2)cc1
IC50 (second compound 0.1 µM): 429 nM | IC50 (second compound 0.316 µM): 393 nM | IC50 (second compound 1 µM): 446 nM | IC50 (second compound 3.16 µM): 452 nM | IC50 (second compound 10 µM): 403 nM | viability, T/C [3]: 89.2% | viability, T/C [4]: 101% | viability, T/C [5]: 83.6% | viability, T/C [6]: 62.8% | viability, T/C (second compound 0.1 µM, first compound 0.949 µM): 22.8% | viability, T/C (second compound 0.1 µM, first compound 3 µM): 0.44% | viability, T/C [9]: 83.7% | viability, T/C [10]: 88.8% | viability, T/C [11]: 77.9% | viability, T/C [12]: 59.9% | viability, T/C (second compound 0.316 µM, first compound 0.949 µM): 19.9% | viability, T/C (second compound 0.316 µM, first compound 3 µM): 0.28% | viability, T/C [15]: 90.4% | viability, T/C [16]: 88.5% | viability, T/C [17]: 77.1% | viability, T/C [18]: 67.8% | viability, T/C (second compound 1 µM, first compound 0.949 µM): 19.9% | viability, T/C (second compound 1 µM, first compound 3 µM): 1.47% | viability, T/C [21]: 84.2% | viability, T/C [22]: 89.1% | viability, T/C [23]: 82.9% | viability, T/C [24]: 70% | viability, T/C (second compound 3.16 µM, first compound 0.949 µM): 14.2% | viability, T/C (second compound 3.16 µM, first compound 3 µM): 0.23% | viability, T/C [27]: 90.3% | viability, T/C [28]: 85.1% | viability, T/C [29]: 83.7% | viability, T/C [30]: 65.3% | viability, T/C (second compound 10 µM, first compound 0.949 µM): 5.98% | viability, T/C (second compound 10 µM, first compound 3 µM): 0.28%

Nc1ccn(C2OC(CO)C(O)C2(F)F)c(=O)n1 (stereo not given) + NC1CC1c1ccc(-c2cccc(O)c2)cc1
IC50 (second compound 0.1 µM): 66.8 nM | IC50 (second compound 0.316 µM): 70.8 nM | IC50 (second compound 1 µM): 69.9 nM | IC50 (second compound 3.16 µM): 57 nM | IC50 (second compound 10 µM): 36.5 nM | viability, T/C [1]: 86.9% | viability, T/C [2]: 86.4% | viability, T/C [3]: 84% | viability, T/C [4]: 66.8% | viability, T/C [5]: 42.8% | viability, T/C [6]: 23.4% | viability, T/C [7]: 83.2% | viability, T/C [8]: 89.1% | viability, T/C [9]: 79.1% | viability, T/C [10]: 66% | viability, T/C [11]: 44.9% | viability, T/C [12]: 24.9% | viability, T/C [13]: 90.8% | viability, T/C [14]: 84% | viability, T/C [15]: 87.3% | viability, T/C [16]: 63.3% | viability, T/C [17]: 45.8% | viability, T/C [18]: 26.5% | viability, T/C [19]: 90.1% | viability, T/C [20]: 94.8% | viability, T/C [21]: 92% | viability, T/C [22]: 67.7% | viability, T/C [23]: 36.3% | viability, T/C [24]: 27.5% | viability, T/C [25]: 97.4% | viability, T/C [26]: 87.9% | viability, T/C [27]: 80.3% | viability, T/C [28]: 52.5% | viability, T/C [29]: 36% | viability, T/C [30]: 33.9%

O=C(c1cc(Cc2n[nH]c(=O)c3ccccc23)ccc1F)N1CCN(C(=O)C2CC2)CC1 + NC1CC1c1ccc(-c2cccc(O)c2)cc1
IC50 (second compound 0.1 µM): > 10000 nM | IC50 (second compound 0.316 µM): > 10000 nM | IC50 (second compound 1 µM): > 10000 nM | IC50 (second compound 3.16 µM): > 10000 nM | IC50 (second compound 10 µM): > 10000 nM | viability, T/C (second compound 0.1 µM, first compound 0.0316 µM): 80.9% | viability, T/C (second compound 0.1 µM, first compound 0.1 µM): 87.5% | viability, T/C (second compound 0.1 µM, first compound 0.316 µM): 88.4% | viability, T/C (second compound 0.1 µM, first compound 1 µM): 87.4% | viability, T/C (second compound 0.1 µM, first compound 3.16 µM): 81.5% | viability, T/C (second compound 0.1 µM, first compound 10 µM): 69.1% | viability, T/C (second compound 0.316 µM, first compound 0.0316 µM): 90.5% | viability, T/C (second compound 0.316 µM, first compound 0.1 µM): 82.3% | viability, T/C (second compound 0.316 µM, first compound 0.316 µM): 89.1% | viability, T/C (second compound 0.316 µM, first compound 1 µM): 74.7% | viability, T/C (second compound 0.316 µM, first compound 3.16 µM): 74.6% | viability, T/C (second compound 0.316 µM, first compound 10 µM): 66.2% | viability, T/C (second compound 1 µM, first compound 0.0316 µM): 77.9% | viability, T/C (second compound 1 µM, first compound 0.1 µM): 79.7% | viability, T/C (second compound 1 µM, first compound 0.316 µM): 79.7% | viability, T/C (second compound 1 µM, first compound 1 µM): 77.1% | viability, T/C (second compound 1 µM, first compound 3.16 µM): 67% | viability, T/C (second compound 1 µM, first compound 10 µM): 59.5% | viability, T/C (second compound 3.16 µM, first compound 0.0316 µM): 81.8% | viability, T/C (second compound 3.16 µM, first compound 0.1 µM): 82.2% | viability, T/C (second compound 3.16 µM, first compound 0.316 µM): 83.3% | viability, T/C (second compound 3.16 µM, first compound 1 µM): 75.6% | viability, T/C (second compound 3.16 µM, first compound 3.16 µM): 69.1% | viability, T/C (second compound 3.16 µM, first compound 10 µM): 55.8% | viability, T/C (second compound 10 µM, first compound 0.0316 µM): 87.7% | viability, T/C (second compound 10 µM, first compound 0.1 µM): 84.9% | viability, T/C (second compound 10 µM, first compound 0.316 µM): 83.4% | viability, T/C (second compound 10 µM, first compound 1 µM): 78.4% | viability, T/C (second compound 10 µM, first compound 3.16 µM): 68.1% | viability, T/C (second compound 10 µM, first compound 10 µM): 55.7%
